The record followed here is PubChem BioAssay (NCI).

SMILES strings stand for the structures.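 1) Cells in 96-well plates. 2) Compound, 48 h, 5 concentrations. 3) Linear interpolation between surrounding doses. 4) Unreached endpoint = highest concentration. The concentration for 50% growth inhibition is given as GI50. TGI: total growth inhibition.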

Some test systems named below: HOP-62 NSCLC; SNB-19 CNS; UACC-257 melanoma; BT-549 breast; NCI-H522 lung; DU-145 prostate; RPMI-8226 leukemia; CCRF-CEM leukemia; IGROV1 ovarian; HOP-92 NSCLC; HCT-15 colon; M14 melanoma; SW-620 colon; KM12 colon; U251 CNS; MDA-N; NCI-H460 lung; OVCAR-5 ovarian; SNB-75 CNS.
Assay in all cases: NCI anticancer screen, dose series, 48 h

Turning to `O=C(Cc1ccc(Cl)cc1)Nc1ccc2oc(-c3ccccc3)nc2c1`, the TGI in the test with HOP-62 NSCLC, in the test on SNB-19 CNS, in the test with UACC-257 melanoma, in the test with BT-549 breast, in the test on NCI-H522 lung and with DU-145 prostate was more than 100 µM each time. In addition, the TGI with RPMI-8226 leukemia, in the test with CCRF-CEM leukemia, with IGROV1 ovarian, in the test on HOP-92 NSCLC, in the test on HCT-15 colon and in the test on M14 melanoma was more than 100 µM each time. Also, the TGI with SW-620 colon, with KM12 colon, with U251 CNS, in the test with MDA-N, in the test on NCI-H460 lung and with OVCAR-5 ovarian was more than 100 µM each time. Moreover, the TGI with SNB-75 CNS is 72.1 µM.

Take `Cc1c(Cl)c(S(N)(=O)=O)cc2c1NC=NS2(=O)=O`: the TGI in the test with HOP-62 NSCLC, in the test with SNB-19 CNS, in the test with UACC-257 melanoma, with BT-549 breast, with NCI-H522 lung and in the test with DU-145 prostate was more than 100 µM in each case. Further, the TGI with RPMI-8226 leukemia, with CCRF-CEM leukemia, in the test with IGROV1 ovarian, in the test on HOP-92 NSCLC, with HCT-15 colon and in the test with M14 melanoma was more than 100 µM in each case. The TGI in the test with SW-620 colon, with KM12 colon, in the test on U251 CNS, in the test on MDA-N, in the test with NCI-H460 lung and in the test on OVCAR-5 ovarian was more than 100 µM throughout. The TGI in the test on SNB-75 CNS was more than 100 µM.

On to `CC(=O)c1cccc(Nc2nc3ccc(Cl)cc3c3[nH]c4ccccc4c23)c1`, for which the TGI with HOP-62 NSCLC is 15.4 µM; in the test on SNB-19 CNS, 48.6 µM; in the test on UACC-257 melanoma it was more than 88.2 µM; in the test on BT-549 breast, more than 100 µM; in the test on NCI-H522 lung, 16.4 µM; in the test with DU-145 prostate it was 26.8 µM. Further, the TGI in the test on RPMI-8226 leukemia is more than 100 µM; in the test with CCRF-CEM leukemia it was more than 100 µM; with IGROV1 ovarian it was more than 48.6 µM; in the test on HOP-92 NSCLC, 13.4 µM; with HCT-15 colon, more than 100 µM; in the test on M14 melanoma, more than 100 µM. Moreover, the TGI with SW-620 colon was more than 85.6 µM; in the test on KM12 colon it was more than 100 µM; in the test on U251 CNS, 14.7 µM; with MDA-N, more than 100 µM; in the test on NCI-H460 lung it was 6.41 µM; with OVCAR-5 ovarian, 61.6 µM. Besides, the TGI in the test with SNB-75 CNS was 8.16 µM. The GI50 with SNB-75 CNS was 2040 nM.

As for `Oc1ccc(Cc2nccc3cc(O)c(O)cc23)cc1O`, the TGI was more than 100 µM in the test with HOP-62 NSCLC; more than 100 µM with SNB-19 CNS; 87.6 µM in the test on UACC-257 melanoma; more than 100 µM in the test on BT-549 breast; more than 100 µM in the test with NCI-H522 lung; more than 100 µM in the test on DU-145 prostate. Also, the TGI in the test with RPMI-8226 leukemia is more than 100 µM; in the test on CCRF-CEM leukemia, 60.3 µM; in the test on IGROV1 ovarian, more than 100 µM; with HOP-92 NSCLC it was more than 100 µM; with HCT-15 colon, more than 100 µM; with M14 melanoma it was 78.2 µM. Further, the TGI in the test on SW-620 colon, with KM12 colon, with U251 CNS, in the test with MDA-N, in the test on NCI-H460 lung and with OVCAR-5 ovarian was more than 100 µM in each case. In the test with SNB-75 CNS, the TGI was more than 100 µM.

Take `O=C(NNCc1ccco1)c1cc2ccccc2[nH]1`: the TGI was more than 100 µM with HOP-62 NSCLC; more than 100 µM in the test with SNB-19 CNS; more than 100 µM in the test with UACC-257 melanoma; more than 90.5 µM in the test with BT-549 breast; more than 100 µM in the test with NCI-H522 lung; more than 100 µM with DU-145 prostate. The TGI with RPMI-8226 leukemia was more than 100 µM; in the test on CCRF-CEM leukemia it was more than 100 µM; in the test on IGROV1 ovarian it was more than 100 µM; in the test with HOP-92 NSCLC, more than 96.4 µM; in the test on HCT-15 colon, more than 100 µM; in the test on M14 melanoma, more than 100 µM. Further, the TGI in the test with SW-620 colon is more than 100 µM; with KM12 colon, more than 100 µM; with U251 CNS, more than 40.9 µM; in the test on MDA-N it was more than 100 µM; in the test with NCI-H460 lung it was more than 100 µM; in the test on OVCAR-5 ovarian, more than 100 µM. In addition, the TGI in the test on SNB-75 CNS is more than 100 µM.

Consider `CC(C)(C)C(=O)CP(=O)(O)O`, for which the TGI in the test with HOP-62 NSCLC, with SNB-19 CNS, in the test on UACC-257 melanoma, in the test with BT-549 breast, in the test with NCI-H522 lung and with DU-145 prostate was more than 100 µM throughout. In addition, the TGI in the test with RPMI-8226 leukemia, in the test on CCRF-CEM leukemia, in the test with IGROV1 ovarian, with HOP-92 NSCLC, in the test on HCT-15 colon and in the test on M14 melanoma was more than 100 µM each time. Also, the TGI with SW-620 colon, with KM12 colon, in the test on U251 CNS, with MDA-N, with NCI-H460 lung and with OVCAR-5 ovarian was more than 100 µM throughout. The TGI in the test on SNB-75 CNS was more than 100 µM.
